{
  "source": "patent US20250025490A1",
  "about": "“INDUCTION OF TRAINED IMMUNITY FOR THE TREATMENT OF HYPERPROLIFERATIVE DISORDERS” (priority 2021, published 2025)",
  "format_in_all_cases": "cell-based, mice",
  "key": {"[1]": {"tested_on": "peritoneal macrophages", "assay": "In vitro training and re-stimulation of peritoneal macrophages (Example 2), TNF-α ELISA", "method": "Isolation and culture of peritoneal macrophages. Mice were euthanized with CO2 inhalation and injected i.p. with 5 ml of sterile cold, complete DMEM medium (Sigma Aldrich) followed by gentle massage of the peritoneum. The peritoneal fluid was then collected, centrifuged at 1600 rpm for 5 min. The cell pellet was washed, counted, and plated at appropriate numbers in complete DMEM. The cells were incubated for 2-4 hours at 37° C. and 5% CO2 to allow peritoneal macrophages attached to the plates. The floating cells were aspirated and plates were gently washed with sterile pre-warmed medium and then added with fresh complete DMEM. For comparison studies between different mouse strains, peritoneal cells were stained with viability dye and anti-F4/80 antibodies (Biolegend) and F4/80^+ macrophages were sorted by FACS Aria III (BD Bioscience).\nIn vitro training and re-stimulation of peritoneal macrophages. Peritoneal macrophages were treated with 25 μg/ml of WGP or polystyrene beads (3 μm, Sigma-Aldrich) and incubated for 24 h at 37°° C. with 5% CO2. Macrophages were then washed with pre-warmed complete DMEM at least twice to remove excess WGP or polystyrene beads, added with fresh complete DMEM and incubated 6 days. On day 7, macrophages were re-stimulated with different stimuli such as LPS (10 ng/ml) (Sigma), tumor cells, tumor cell culture supernatants (40%) or rMIF (100 ng/ml) (kindly provided by Dr. Robert Mitchell) for 24 h. The culture supernatants were harvested and assayed for TNF-α by ELISA. For cell culture supernatants, tumor cell lines including LLC, B16F10, and EL4, and control cell line MLE-12 were used.\nThese cell lines were cultured (1 million/4 ml complete DMEM) in a 6-well plate and incubated for 72 h. The supernatants were harvested and stored at −80° C. in aliquots.\nELISA for TNF-α and MIF. TNF-α in the culture supernatants was measured using TNF-α ELISA kit (Biolegend) and MIF levels in the culture supernatants were quantified using mouse MIF ELISAkit (R&D Systems) per the manufacturer's instruction.\nIn vitro training with S1P. Peritoneal macrophages were stimulated with 200 nM or 300 nM of S1P for 24 h at 37° C. and 5% CO2. The macrophages were then washed and allowed for resting. On day 7, the macrophages were stimulated with LPS (10 ng/ml) or LLC culture supernatant (40%) for 24 h and the supernatants were collected for the quantification of TNF-α using ELISA. For another set of in vitro-training experiment, macrophages were trained with S1P in the presence of Mdivi-1 (10 μM) during S1P training and throughout the resting period. Cells were restimulated with LPS and the supernatants were collected to determine TNF-α levels by ELISA.\n[…] The inhibitors were further added to the macrophage cultures and incubated at 37° C. and 5% CO2 for 6 more days. On day 7, the macrophages were washed once with pre-warmed complete DMEM and added LPS (10 ng/ml) or LLC culture supernatant (40%) for re-stimulation."}, "[2]": {"tested_on": "KPC tumor cells", "assay": "Cytotoxicity assay of pancreatic CD11b+ cells against KPCLuc+ cells", "conditions": "NAC 1 mM", "method": "The pancreas from WGP and PBS treated mice were harvested and the CD11b^+ populations were isolated using magnetic CD11b^+ MicroBeads (Miltenyi Biotec) and an autoMACS Pro Separator (Miltenyi Biotec). Purified CD11b^+ cells were then washed and counted, and these were plated at a ratio of 1:20 tumor:effector cells in a 96 well plate. All experimental samples were run in triplicate. After plating the CD11b^+ cells, the ROS inhibitor […] (NAC) (Sigma Aldrich) was added to one set of PBS and WGP derived cells at 1 mM for 1 hour before the addition of 5000 luciferase expressing KPC^+ pancreatic tumor cells to all wells. After 24 hours, of coculture, the plates were centrifuged and 20 μL of the supernatant was mixed with 100 μL of the Luciferase Assay Reagent (Promega). Luciferase activity measured in the supernatant correlated with tumor cells that had been killed by the effector cells and was measured using a luminometer (Femtomaster FB 12, Zylux Corporation). The spontaneous luciferase signal from plated tumor cells was subtracted from the measurement of the supernatant. Luciferase values are represented as Relative Light Units (RLUs)."}, "[3]": {"tested_on": "peritoneal macrophages", "assay": "Mitochondrial ROS quantitation (MitoSox Red)", "conditions": "peritoneal macrophages, 24 h", "method": "(§1) Mitochondrial ROS quantitation. Peritoneal macrophages were treated with WGP or S1P in the presence or absence of Mdivi-1 and incubated at 37° C. with 5% CO2 for 24 h. The cells were then harvested, washed with PBS and pelleted by centrifugation at 1600 rpm for 5 min at room temperature. The pellets were then stained with MitoSOX Red dye (5 μM) (Invitrogen) at 37° C. for 15 min. The cells were washed with pre-warmed HBSS followed by another wash with PBS at room temperature. The cells were then stained with viability dye and anti-F4/80 and then acquired by flow cytometry. Flow cytometry for p-Drp-1. Peritoneal macrophages were treated with WGP (25 μg/ml) or S1P (1 μM) and incubated at 37° C. with 5% CO2 for 3-4 h. Following the completion of incubation, the cells were quickly washed with cold PBS to stop the activation. The cells were harvested and washed with PBS. The cells were then fixed with 4% formaldehyde for 15 min at room temperature, washed with PBS and permeabilized using ice-cold 100% methanol on ice for a minimum of 10 min. The cells were then stained with primary antibody (p-Drp1) (Cell Signaling) for 1 hour at room temperature followed by secondary antibody (Anti-rabbit IgG) (Biolegend) for 30 min at room temperature as instructed in the Cell Signaling phospho-stain protocol and analyzed using flow cytometry."}, "[4]": {"tested_on": "Drp-1", "assay": "p-Drp-1 / Drp-1 by flow cytometry and Western blot", "method": "as §1\nWestern blot analysis for total Drp-1 and p-Drp-1. […]"}},
  "data": [
    {"smiles": "CCCC[C@@H](C)[C@@H](OC(=O)C[C@@H](CC(=O)O)C(=O)O)[C@H](C[C@@H](C)C[C@H](O)CCCC[C@@H](O)C[C@H](O)[C@H](C)N)OC(=O)C[C@@H](CC(=O)O)C(=O)O", "note": "[Fumonisin-B1]", "values": [
      {"measurement": "effect on WGP-mediated trained response (TNF-α)", "setting": "[1]; Fumonisin-B1 25 μM, LPS and LLC supernatants", "value": "abrogated WGP-mediated trained response"}
    ]},
    {"smiles": "CC(=O)N[C@@H](CS)C(=O)O", "note": "[NAC, N-Acetyl Cysteine]", "values": [
      {"measurement": "effect of ROS inhibition on WGP-elicited cytotoxicity", "setting": "[2]", "value": "completely abrogated the WGP-elicited increase in cytotoxicity"}
    ]},
    {"smiles": "CCCCCCCCCCCCC/C=C/[C@@H](O)[C@@H](N)COP(=O)(O)O", "note": "[S1P, sphingosine-1-phosphate]", "values": [
      {"measurement": "TNF-α production of macrophages trained with S1P", "setting": "[1]; S1P 200 nM or 300 nM, LPS or LLC supernatant restimulation", "value": "showed significantly higher TNF-α production compared to the untrained controls"},
      {"measurement": "mtROS production", "setting": "[3]", "value": "exhibited an enhanced mtROS production"},
      {"measurement": "phosphorylation of Drp-1", "setting": "[4]; peritoneal macrophages", "value": "significantly increased p-Drp-1 in macrophages"}
    ]},
    {"smiles": "O=C(NCc1ccncc1)C12CC3CC(C1)CC(c1ccc(Cl)cc1)(C3)C2", "note": "[Sphk2i]", "values": [
      {"measurement": "effect on WGP trained responses (TNF-α)", "setting": "[1]; Sphk2i 25 μM or 50 μM, LPS and LLC supernatant", "value": "completely attenuated the trained responses"},
      {"measurement": "effect on p-Drp-1 in WGP-treated macrophages", "setting": "[4]; Sphk2i 50 μM, 3 h and 6 h", "value": "decreased the level of p-Drp-1 but not total Drp-1"}
    ]}
  ]
}
